Experimental data from the NIST ThermoML archive (doi:10.1021/je101191e).

How the values were obtained:
[1] = 298.15 K; 101.33 kPa; Liquid; Pycnometric method
[2] = xn = mol fraction of the nth substance listed; conditions: 298.15 K, 101.3 kPa, Liquid; for viscosity: Concentric cylinders viscometry; for mass density: Pycnometric method

CCN(C(C)C)C(C)C [N-ethyl-N-(1-methylethyl)-1-methylethanamine]
Conditions | mass density [kg/m3]
[1] | 742

CCCCCCC(=O)[O-].CC[NH+](C(C)C)C(C)C [N-ethyl-N-isopropylpropan-2-aminium heptanoate] + CC#N
[2]
Conditions | mass density [kg/m3] | viscosity [mPa·s]
x1 = 0.1 | – | 1.09
x1 = 0.1016 | 820.6 | –
x1 = 0.2 | – | 1.826
x1 = 0.2003 | 840.8 | –
x1 = 0.3 | – | 2.51
x1 = 0.3046 | 849.7 | –
x1 = 0.4 | – | 3.875
x1 = 0.402 | 853.8 | –
x1 = 0.5 | – | 5.158
x1 = 0.5021 | 857.1 | –
x1 = 0.6 | – | 7.013
x1 = 0.6083 | 859.8 | –
x1 = 0.7 | – | 9
x1 = 0.705 | 862.3 | –
x1 = 0.8 | – | 11.6
x1 = 0.8013 | 863.9 | –
x1 = 0.9 | – | 13.5
x1 = 0.9013 | 865.4 | –
x1 = 1 | 866.5 | 12.23

CCCCCCC(=O)[O-].CC[NH+](C(C)C)C(C)C [N-ethyl-N-isopropylpropan-2-aminium heptanoate] + O
[2]
Conditions | mass density [kg/m3] | viscosity [mPa·s]
x1 = 0.0998 | 966.3 | –
x1 = 0.1 | – | 21.99
x1 = 0.198 | 936.2 | –
x1 = 0.2 | – | 43.71
x1 = 0.299 | 913.6 | –
x1 = 0.3 | – | 41.58
x1 = 0.4 | – | 31.51
x1 = 0.4007 | 900.3 | –
x1 = 0.5 | – | 26.92
x1 = 0.5007 | 889.9 | –
x1 = 0.5941 | 884 | –
x1 = 0.6 | – | 23.65
x1 = 0.6913 | 877.2 | –
x1 = 0.7 | – | 22.67
x1 = 0.7896 | 872.6 | –
x1 = 0.8 | – | 18.07
x1 = 0.9 | – | 14.44
x1 = 0.9014 | 869.5 | –
x1 = 1 | 866.5 | 12.23

CCCCCCCC(=O)[O-].CC[NH+](C(C)C)C(C)C [N-ethyl-N-isopropylpropan-2-aminium octanoate] + CC#N
[2]
Conditions | mass density [kg/m3] | viscosity [mPa·s]
x1 = 0.0948 | 815.2 | –
x1 = 0.1 | – | 1.291
x1 = 0.193 | 834.3 | –
x1 = 0.2 | – | 1.947
x1 = 0.2908 | 842.2 | –
x1 = 0.3 | – | 2.865
x1 = 0.3981 | 847.3 | –
x1 = 0.4 | – | 4.921
x1 = 0.5 | – | 6.897
x1 = 0.505 | 850 | –
x1 = 0.5846 | 852 | –
x1 = 0.6 | – | 8.725
x1 = 0.6749 | 853.3 | –
x1 = 0.7 | – | 11
x1 = 0.7994 | 855.8 | –
x1 = 0.8 | – | 13.31
x1 = 0.86 | 856.5 | –
x1 = 0.9 | – | 14.82
x1 = 1 | 858.5 | 13.52

CCCCCCCC(=O)[O-].CC[NH+](C(C)C)C(C)C [N-ethyl-N-isopropylpropan-2-aminium octanoate] + O
[2]
Conditions | mass density [kg/m3] | viscosity [mPa·s]
x1 = 0.0948 | 955.1 | –
x1 = 0.1 | – | 36.61
x1 = 0.193 | 927.3 | –
x1 = 0.2 | – | 52.36
x1 = 0.2908 | 905.7 | –
x1 = 0.3 | – | 42.39
x1 = 0.3981 | 890.6 | –
x1 = 0.4 | – | 32.19
x1 = 0.5 | – | 27.62
x1 = 0.505 | 877.4 | –
x1 = 0.5846 | 872.2 | –
x1 = 0.6 | – | 26.19
x1 = 0.6749 | 867.2 | –
x1 = 0.7 | – | 21.29
x1 = 0.7994 | 862.9 | –
x1 = 0.8 | – | 18.05
x1 = 0.86 | 861 | –
x1 = 0.9 | – | 16.65
x1 = 1 | 858.5 | 13.52

CC#N [acetonitrile] + CCCCCCC(=O)[O-].CC[NH+](C(C)C)C(C)C
[2], x2 = 0
Conditions | mass density [kg/m3] | viscosity [mPa·s]
– | 768.6 | 0.335

CC#N [acetonitrile] + CCCCCCCC(=O)[O-].CC[NH+](C(C)C)C(C)C
[2], x2 = 0
Conditions | mass density [kg/m3] | viscosity [mPa·s]
– | 768.6 | 0.335

CCCCCCC(=O)O [heptanoic acid]
Conditions | mass density [kg/m3]
[1] | 918

CCCCCCCC(=O)O [octanoic acid]
Conditions | mass density [kg/m3]
[1] | 910

O [water] + CCCCCCC(=O)[O-].CC[NH+](C(C)C)C(C)C
Conditions | viscosity [mPa·s]
[2], x2 = 0 | 0.891

O [water] + CCCCCCCC(=O)[O-].CC[NH+](C(C)C)C(C)C
Conditions | viscosity [mPa·s]
[2], x2 = 0 | 0.891
